Measurements taken from US9567319B2, “Compound having higher inhibitory activity on protein kinase G and preparation method thereof” (Jenkem Technology Co., Ltd., (Tianjin), priority 2014, dated 2017).
Values after ≈ are worked out from the molar mass of the structure shown. “Also recorded” adds a separate entry of the source.

Experiments:
[1] = Test of water solubility of the compounds; settings: for Volume of added water: about 0.1 g sample, room temperature, water added until dissolved; for solubility: water, thermodynamic from solid
Protocol: At room temperature, about 0.1 g of each sample to be tested (solid materials should be ground as powder) was added to a 10 mL cylinder with a ground glass stopper. Water was gradually added. After each addition of 0.5 mL water, the resulting solution was stirred for 10 min for mixing, and was then visually examined for the presence of any undissolved sample. If there still exists undissolved sample or undissolved portions of the sample after 10 mL water was added, the test would be continued in a 100 mL cylinder.

[2] = test system: hyperalgesia induced by Freund's complete adjuvant (CFA) in rats; assay: Therapeutic effect on CFA induced hyperalgesia in rats (overall conclusion of Von Frey and weight bearing tests); assay type: in vivo, SD rats; settings: for anti-hyperalgesia effect at high dose: high dose i.v.: JK-02H 20 mg/kg, 46 and JK-02A 40 mg/kg; for anti-hyperalgesia effect at high dose / anti-hyperalgesia effect at low dose: compared with vehicle; for anti-hyperalgesia effect at low dose: low dose i.v.: JK-02H 5 mg/kg, 46 and JK-02A 10 mg/kg
Protocol: . A repeat efficacy study was carried out on the same batch of animals with a single-dose treatment followed by a washing-out period. The 14 days in life studies included two stages: a single low dose treatment assessment on the 7th day and then a single high dose treatment test on the 14th day after CFA injection.
On the 7th day after CFA injection, the rats were randomly assigned to respective groups using a computer generated randomization procedure based on the body weight and the baseline values of Von Frey and weight bearing test. Animals received corresponding single dose treatments (vehicle and 3 test articles) on the 7th and 14th days after CFA injection, respectively, and the effect of the test compounds were evaluated. Hyperalgesia of all the study animals was assessed following a single low dose treatment with the test articles on day 7, while a single high dose effect of the test article was evaluated on day 14.
The mechanical hyperalgesia and weight bearing were measured on day 7 and day 14 after CFA injection, followed by administration of control or test articles. Von Frey filaments and weight bearing were measured on all the study animals at three time points on day 7, and four time points on day 14. An extra time point assessment was conducted on day 14, considering the strong analgesic effect of the test articles at a higher dose noticed during the test at the 3th time point.
The effects of compounds 46, JK-02A and JK-02H on CFA induced hyperalgesia in rats were assessed with Von Frey and weight bearing tests following single injection.

With `CCCOc1ccc(F)c(F)c1C(=O)c1ccc(C(=O)N[C@@H]2CNC[C@H]2NC(=O)c2ccc3cn[nH]c3c2)cc1` [JK-02A] as the molecule, how does the “Volume of added water” value [1] read?
The value was 71.5 mL.

And the solubility [1]?
The solubility was 1400 µg/mL (≈ 2560 µM).

What about the “anti-hyperalgesia effect at high dose” value [2] of the same molecule?
The value was “showed anti-hyperalgesia effects”.

And the “anti-hyperalgesia effect at low dose” value [2]?
The value was “not significant”.

For `Cl.O=C(N[C@@H]1CNC[C@H]1NC(=O)c1ccc2cn[nH]c2c1)c1ccc(C(=O)c2c(OCCOCCO)ccc(F)c2F)cc1` [JK-02H, (3R,4R)-3-{4-[2,3-difluoro-6-(5-hydroxy-3-oxapentan-1-oxy)]benzoyl}benzamido-4-(1H-indazole-6-carboxamido)pyrrolidine hydrochloride], which “Volume of added water” value [1] is on record?
The value was 13.5 mL.

What about the “water solubility, times higher than that of compound 46” value ([1]; relative to compound 46 (parent compound)) of the same molecule?
The value was “about 5 times”.

And the solubility [1]?
Its solubility is 7400 µg/mL.

And the “therapeutic effect when the test time was prolonged to 5 h” value ([2]; high dose (20 mg/kg), 5 h post treatment)?
The value was “very remarkable therapeutic effect”.

What about the “anti-hyperalgesia effect at high dose” value ([2]; hydrochloride) of the same molecule?
The value was “excellent anti-hyperalgesia effect; also recorded: significant anti-hyperalgesia effects”.

And the “anti-hyperalgesia effect at low dose” value ([2]; hydrochloride)?
Its value is “excellent anti-hyperalgesia effect; also recorded: significant anti-hyperalgesia effects”.

With `CCCOc1ccc(O)c(F)c1C(=O)c1ccc(C(=O)N[C@@H]2CNC[C@H]2NC(=O)c2ccc3cn[nH]c3c2)cc1` [compound 46] as the molecule, how does the “Volume of added water” value [1] read?
The value was 66.5 mL.

And the solubility [1]?
Its solubility is 1500 µg/mL (≈ 2750 µM).

And the “anti-hyperalgesia effect at high dose” value [2]?
The value was “anti-hyperalgesia effect; also recorded: showed anti-hyperalgesia effects”.

What about the “anti-hyperalgesia effect at low dose” value [2] of the same molecule?
Its value is “barely showed any anti-hyperalgesia effect; also recorded: not significant”.
